Laboratory results: US11110158B2, “Prostate-associated antigens and vaccine-based immunotherapy regimens” (Pfizer Inc., priority 2012, dated 2021)
Values joined by “and” are separate entries in the source; they are usually repeats but may differ in a detail not shown here. Equal entries are not always repeated.

Tests used:
[1] = test system: hPSMA full-length protein; assay: IFN-γ ELISPOT, hPSMA modified versus full-length DNA vaccine in C57BL/6 mice; assay type: in vivo, human; details: Example 7, FIG. 26; C57BL/6, PMED days 0, 14, 28; day 35
Description: The immune responses induced by DNA vaccination using a construct encoding an immunogenic PSMA polypeptide (the “human PSMA modified antigen” or “hPSMA modified”) consisting 15-750 amino acids (aa) of the native human PSMA protein of SEQ ID NO: 1 were compared with those induced by the native human full-length PSMA protein (hPSMA full length). Groups of female C57BL/6 mice or female Pasteur (HLA-A2/DR1) transgenic mice were primed on day 0 and boosted on days 14, 28 by PMED administration with a 2 μg dose of a DNA vaccine encoding either hPSMA full-length or hPSMA modified protein. Mice were bled and sacrificed on day 35 (7 days after the third vaccination) and T cell immune responses against the hPSMA full-length protein were determined in splenocytes by IFN-γ ELISPOT assay. For C57BL/6 mice, single cell suspensions of 5×10^5 splenocytes from individual animals were plated per well with […] purified hPSMA protein, 5×10^4 TRAMP-C2 cells alone, or TRAMP-C2 cells expressing hPSMA or a PSMA-PSA-PSCA fusion protein. […] Responses in Pasteur mice were also determined using 10 μg/ml purified PSMA protein or 5×10^4 SK-Mel5 cells that had been transduced with Adenoviral vectors expressing a control protein (Ad-eGFP) or the full-length human PSMA protein (Ad-hPSMA). […] The number of IFN-γ SFC was counted by a CTL reader. […]

[2] = test system: human PSMA; assay: IFNγ ELISPOT of PBMCs, PSMA vaccine with or without anti-CTLA-4 in Indian rhesus macaques, human PSMA recall antigens; assay type: in vivo, rhesus macaque
Description: (§1) Three groups of male Indian rhesus macaques, five to six (#1 to 5 or 6) per each test group, were immunized with a nucleic acid (SEQ ID NO: 10) that encodes a human PSMA modified antigen (SEQ ID NO: 9) delivered by adenovirus (1e11 V.P. injected intramuscularly) followed by 2 DNA immunizations (8 actuations/immunization, 4 actuations per each right and left side of the lower abdomen) by PMED with 6 and 9 week intervals respectively. Animals in Groups 2 and 3 additionally received bilateral intradermal injections of 3 mg of CpG (PF-03512676) subsequently after the PMED immunization in proximity to each inguinal draining lymph node. Group 2 also received intravenous injections of anti-CTLA-4 monoclonal antibody (CP-675, 206) at 10 mg/kg and group 3 received intradermal injections of anti-CTLA-4 monoclonal antibody (CP-675, 206) at 5 mg/kg in proximity to each left and right inguinal vaccine draining lymph node at the time of the second PMED immunization.
Peripheral blood samples were collected from each animal sixteen days after the last PMED immunization. Peripheral blood mononuclear cells (PBMCs) were isolated from the samples and were subjected to an IFNγ ELISPOT assay to measure the PSMA specific T cell responses. Briefly, 4e5 PBMCs from individual animals were plated per well with pools of PSMA specific peptides each at 2 ug/ml hPSMA ECD protein at 10 ug/ml, rhesus PSMA ECD protein at 10 ug/ml or nonspecific control peptides (human HER2 peptide pool) each at 2 ug/ml in IFNγ ELISPOT plates. The plates were incubated for 16 hrs at 37° C. and 5% CO2 and washed and developed after incubation as per manufacturer's instruction. The number of IFNγ spot forming cells (SFC) were counted by CTL reader. Each condition was performed in duplicates.
A capture antibody specific to IFNγ([…]BD Bioscience, #51-2525kc) is coated onto a polyvinylidene fluoride (PVDF) membrane in a microplate overnight at 4° C. The plate is blocked with serum/protein to prevent nonspecific binding to the antibody. After blocking, effector cells (such as splenocytes isolated from immunized mice or PBMCs isolated from rhesus macaques) and targets (such as PSMA peptides from peptide library, target cells pulsed with antigen specific peptides or tumor cells expressing the relevant antigens) are added to the wells and incubated overnight at 37° C. in a 5% CO2 incubator. Cytokine secreted by effector cells are captured by the coating antibody on the surface of the PVDF membrane. After removing the cells and culture media, 100 μl of a biotinylated polyclonal anti-humanIFNγ antibody was added to each of the wells for detection. The spots are visualized by adding streptavidin-horseradish peroxidase and the precipitate substrate, 3-amino-9-ethylcarbazole (AEC), to yield a red color spot as per manufacturer's (Mabtech) protocol. Each spot represents a single cytokine producing T cell.

[3] = test system: rhesus PSMA; assay: IFNγ ELISPOT of PBMCs, PSMA vaccine with or without anti-CTLA-4 in Indian rhesus macaques, rhesus PSMA recall antigens; assay type: in vivo; details: Group 2, vaccine + CpG 3 mg intradermal + aCTLA4 10 mg/kg intravenous (IV), normalized to 1e6 PBMCs, one cell per animal
Description: as §1
Peripheral blood samples were collected from each animal sixteen days after the last PMED immunization. Peripheral blood mononuclear cells (PBMCs) were isolated from the samples and were subjected to an IFNγ ELISPOT assay to measure the PSMA specific T cell responses. […] The number of IFNγ spot forming cells (SFC) were counted by CTL reader. […]

[4] = Group 2, vaccine + CpG 3 mg intradermal + aCTLA4 10 mg/kg intravenous (IV), rhesus PBMCs, normalized to 1e6 PBMCs, one cell per animal, 10 mg/kg
[5] = Group 3, vaccine + CpG 3 mg intradermal + aCTLA4 5 mg/kg intradermal (ID) near each inguinal node, rhesus PBMCs, normalized to 1e6 PBMCs, ^ too numerous to count, 5 mg/kg

Substance	IFN-γ T cell responses to TRAMP C2-PSMA or purified hPSMA protein [1]	PSMA specific IFNγ SFC, recall antigen H1 [2, 4]	PSMA specific IFNγ SFC, recall antigen H2 [2, 4]	PSMA specific IFNγ SFC, recall antigen P1 [2, 4]	PSMA specific IFNγ SFC, recall antigen P2 [2, 4]	PSMA specific IFNγ SFC, recall antigen P3 [2, 4]	PSMA specific IFNγ SFC, recall antigen hPSMA protein [2, 4]	PSMA specific IFNγ SFC, recall antigen H2 [2, 5]	PSMA specific IFNγ SFC, recall antigen hPSMA protein [2, 5]	IFNγ T cell responses to PSMA specific peptides and proteins ([2]; group 2: vaccine + CpG (PF-03512676) + systemic (intravenous) anti-CTLA-4 10 mg/kg, versus vaccine alone)	IFNγ T cell responses to PSMA specific peptides and proteins ([2]; group 3: vaccine + CpG + anti-CTLA-4 delivered locally by intradermal injections near the vaccine draining lymph node)	PSMA specific IFNγ SFC, recall antigen R1 [3]	PSMA specific IFNγ SFC, recall antigen rPSMA protein [3]
PSMA modified: membrane-bound polypeptide of amino acids 15-750 of human PSMA, SEQ ID NO: 9; tested as DNA construct	equivalent T cell immune responses	–	–	–	–	–	–	–	–	–	–	–	–
Tremelimumab: fully human IgG2 anti-CTLA-4 monoclonal antibody, CAS 745013-59-6, SEQ ID NOs:42 and 43	–	71.3 SFC and 2.5 SFC and 1063.8 SFC and 147.5 SFC and 402.5 SFC	292.5 SFC and 108.8 SFC and 82.5 SFC and 983.8 SFC and 573.8 SFC	23.8 SFC and 0.0 SFC and 58.8 SFC and 25.0 SFC and 15.0 SFC	57.5 SFC and 61.3 SFC and 41.3 SFC and 318.8 SFC and 312.5 SFC	1.3 SFC and 0.0 SFC and 7.5 SFC and 27.5 SFC and 5.0 SFC	278.8 SFC and 78.8 SFC and 1197.5 SFC and 1046.3 SFC and 707.5 SFC	≥ 1236.3^ SFC and ≥ 1247.5^ SFC and ≥ 1248.8^ SFC and 1173.8 SFC	≥ 1236.8^ SFC and ≥ 1247.5^ SFC and ≥ 1248.8^ SFC and ≥ 1242.5^ SFC	modestly enhanced	more potent and significant enhancement of the response	6.3 SFC and 0.0 SFC and 22.5 SFC and 26.3 SFC and 97.5 SFC	0.0 SFC and 3.8 SFC and 1.3 SFC and 2.5 SFC and 20.0 SFC
